Experimental data taken from paper PMC4628094, “In Vitro Assessment of Uptake and Lysosomal Sequestration of Respiratory Drugs in Alveolar Macrophage Cell Line NR8383” (Pharmaceutical Research, 2015).
Read-outs that look alike come from different tables or passages of the source.

How the values were obtained:
[1] = Physicochemical properties, experimental literature values (Table I); settings: classification in Table I
NR8383 cells [2] = assay: Lysosomal sequestration studies in NR8383 with NH4Cl, monensin and nigericin; settings: for Reduction in uptake clearance (%): preliminary optimisation; for % Reduction in Kp by NH4Cl: NH4Cl 20 mM
Protocol: (§1) The extent of accumulation of drugs in lysosomes was assessed using the same uptake methodology, as described above in the absence and presence of NH4Cl and ionophores, monensin and nigericin. […] In addition, a range of incubation conditions was explored, including pre-incubation and co-incubation alone and combined together. Once the conditions were optimised, further experiments were performed with 20 mM NH4Cl co-incubated with investigated drugs. […] For incubations with monensin and nigericin, all drugs were prepared at 5 μM concentration and the incubations were carried out for 5 min (single time point). Following the treatment of the cell monolayers with drug alone or drug with the agents mentioned, incubations were stopped by washing of the cells with ice-cold DPBS as described above, followed by cell lysis in deionised water. All incubations were carried out in duplicate and experiments were performed for three separate occasions. The removed incubation media were retained for the measurement of drug concentrations and subsequent determination of Kp for each compound. Analysis of samples in LC-MS/MS was performed after cells were kept at −20°C overnight.
(§2) Kp and CLuptake were determined as described above for each drug both under control condition and in the presence of a chemical agent affecting the pH gradient between cytosol and lysosomes. The reduction in Kp and CLuptake of each drug in the presence of the chemical agents was expressed as a percentage relative to control and used as an indicator of the extent of lysosomal sequestration. A 50% reduction in both parameters was set as a cut-off for lysosomal accumulation, while also taking into account the physicochemical properties of the compounds (Table I) and the uncertainty associated with the experimental data.
(§3) The in vitro parameters were calculated on at least three separate occasions and the mean data were reported. When assessing the extent of lysosomal sequestration, the control and chemical agent treated cells were compared using the two-tailed, paired t-test in order to determine statistically significant difference between the two conditions. Values were reported as significant when p < 0.05.

[3] = test system: NR8383 cell line and granule fraction (containing lysosomes); settings: ref ([12]), cited from earlier work
[4] = experimental value; ref ([21])-([30]) per drug, Table I; cited from earlier work
NR8383 cells [5] = assay: LysoTracker Red (LTR) confocal assessment of lysosomal sequestration in NR8383; assay type: cell-based, rat; settings: drug 5 μM co-incubated with 200 nM LTR, 1 h
NR8383 cells [6] = settings: NR8383, 5 μM drug, 5 min
Protocol: as §1, §2, §3

NR8383 cells [7] = assay: Accumulation (Kp) in NR8383 over a concentration range, two-site binding model; settings: apparent saturable uptake equilibrium constant, two-site binding model, control
Protocol: The drug uptake in NR8383 corresponding to these conditions was described by total uptake (CLuptake) and passive diffusion (CLdiff) clearance terms, respectively. […] Substrate solutions were prepared by dilution of the stock solutions in DPBS resulting in final DMSO content < 1%. Uptake studies were performed in the presence of 1 mM ABT, a nonspecific P450 inhibitor, in order to avoid any potential impact of phase I metabolism. […] Following microscopy, the CGM was removed, cells were washed twice with 800 μL of either pre-warmed or ice-cold DPBS (for experiments at 37 and 4°C, respectively) and pre-incubation with 500 μL of pre-warmed or ice-cold ABT/DPBS was carried out for 20 min. Where ABT pre-treatment was not necessary, cell monolayers were treated with 500 μL of DPBS only. […] The amount of protein per well was measured using a BSA calibration curve and absorbances read at 562 nm (S22 Boeco UV-Visible Spectrophotometer, Hamburg, Germany).
Kp was determined by Eq. 1 as reported previously ([36],[37]);1 Kp=Ccell/Cmedium where Ccell and Cmedium represent concentration of the drug in the cell and medium, respectively. […] Cell volume was calculated by multiplying the reported NR8383 volume of 4.2 μL/mg protein ([38]) with the amount of protein measured experimentally (0.25 ± 0.06 mg/10^6 cells). […]

NR8383 cells [8] = assay: Drug uptake in NR8383 at 37 and 4°C (CLuptake, CLdiff, Kp)
Protocol: The studies were carried out in a 24-well plate format and the in vitro conditions were optimised in terms of cell detachment method from culture flasks, coating type of 24-well plates, seeding density, culturing time and drug incubation time points. Briefly, for cell detachment, gentle scraping versus Mg^2+-Ca^2+ free DPBS treatment of cells in culture flasks were tested. Considering the semi-adherent nature of AMs, cell seeding into non-coated, collagen-I and poly-D-lysine coated 24-well plates was investigated for cell attachment, distribution in the wells and detachment following DPBS washes during the uptake experiments. In addition, seeding densities of 0.36 and 0.72 × 10^6 cells per well were assessed with respect to cell attachment, confluency following culture (plating efficiency) and potential cell detachment following DPBS washes. Culturing time ranging from 4 to 24 h was investigated for optimal cell attachment before carrying out uptake experiments. Uptake rate and Kp data were normalised by cell number determined indirectly by measuring the amount of protein in samples by bicinchoninic acid (BCA) protein assay (Thermo Scientific, Loughborough, UK). Following the optimisation, detachment of NR8383 from cell culture flasks was performed by gentle scraping prior to cell counting and seeding into collagen-I coated 24-well plates at 0.5 × 10^6 cells per well. Cells were cultured for 16 h at 37°C, 5% CO2 (CO2 incubator, MCO-17AIC, Sanyo Biomedical, Loughborough, UK) before uptake studies performed over 1 to 10 min period.
The drug uptake in NR8383 corresponding to these conditions was described by total uptake (CLuptake) and passive diffusion (CLdiff) clearance terms, respectively. […] Substrate solutions were prepared by dilution of the stock solutions in DPBS resulting in final DMSO content < 1%. Uptake studies were performed in the presence of 1 mM ABT, a nonspecific P450 inhibitor, in order to avoid any potential impact of phase I metabolism. […] Following microscopy, the CGM was removed, cells were washed twice with 800 μL of either pre-warmed or ice-cold DPBS (for experiments at 37 and 4°C, respectively) and pre-incubation with 500 μL of pre-warmed or ice-cold ABT/DPBS was carried out for 20 min. Where ABT pre-treatment was not necessary, cell monolayers were treated with 500 μL of DPBS only. Once pre-incubation buffer was removed from the cell monolayers, incubations were started by addition of 400 μL of substrate solution (pre-warmed or ice-cold) in each well. Each substrate was incubated with the cells for 1, 2, 5 and 10 min and each time point at 37°C and 4°C. For 37°C experiments, incubation was carried out on a dry heater block maintained at 37°C throughout the experiment (Tecam Dri-block DB-3, Tecam, Princeton, NJ) and for 4°C experiments, the procedure was carried out on ice. Incubation with substrate was stopped by removal of the media with drug solution and washing the monolayers three times with 800 μL ice-cold DPBS. The back-diffusion of the drug from the cell into the medium was considered to be negligible under these conditions. The removed incubation media were retained for the measurement of drug medium concentrations and subsequent determination of Kp for each drug. The cells were lysed by addition of 200 μL ice-cold deionised water; cell lysates were kept at −20°C overnight and then processed further for LC-MS/MS analysis. Experiments were performed on three or more separate occasions for each drug investigated. […] The amount of protein per well was measured using a BSA calibration curve and absorbances read at 562 nm (S22 Boeco UV-Visible Spectrophotometer, Hamburg, Germany).

[9] = Uptake kinetics of clarithromycin in NR8383, two-step method; assay type: in vitro ADME, rat; settings: rat, incubation media of NR8383 cells; NR8383 incubation media; read-out: fraction unbound in the media (fumed)
Protocol: (§4) The drug uptake in NR8383 corresponding to these conditions was described by total uptake (CLuptake) and passive diffusion ([…] ) clearance terms, respectively. […] For 37°C experiments, incubation was carried out on a dry heater block maintained at 37°C throughout the experiment ([…] -block DB-3, Tecam, Princeton, NJ) and for 4°C experiments, the procedure was carried out on ice. […] The back-diffusion of the drug from the cell into the medium was considered to be negligible under these conditions. The removed incubation media were retained for the measurement of drug medium concentrations and subsequent determination of Kp for each drug. […] Experiments were performed on three or more separate occasions for each drug investigated. […] The amount of protein per well was measured using a BSA calibration curve and absorbances read at 562 nm (S22 Boeco UV-Visible Spectrophotometer, Hamburg, Germany). […] The extent of accumulation of drugs in lysosomes was assessed using the same uptake methodology, as described above in the absence and presence of NH4Cl and ionophores, monensin and nigericin. […] In addition, a range of incubation conditions was explored, including pre-incubation and co-incubation alone and combined together. […] Following the treatment of the cell monolayers with drug alone or drug with the agents mentioned, incubations were stopped by washing of the cells with ice-cold DPBS as described above, followed by cell lysis in deionised water. All incubations were carried out in duplicate and experiments were performed for three separate occasions. The removed incubation media were retained for the measurement of drug concentrations and subsequent determination of Kp for each compound. Analysis of samples in LC-MS/MS was performed after cells were kept at -20°C overnight. […] When estimating the uptake kinetic parameters in the presence of NH4Cl, […] estimated at single substrate concentration was used a constant in the equation. […] The latter was determined from the slope of the linear regression of the unbound concentration extrapolated at time 0 vs. the nominal incubation concentration plot.

NR8383 cells [10] = assay: as above; assay type: in vitro ADME, rat; settings: in the presence of NH4Cl
Protocol: as §4

NR8383 cells [11] = test system: NR8383 cells
Protocol: Lactate dehydrogenase (LDH) assay kit (Sigma-Aldrich, Dorset, UK) was used to measure the cytotoxicity of the chemical agents used to assess the extent of lysosomal sequestration relative to untreated cells. In addition, the cytotoxicity was assessed at high drug concentrations (50 and 100 μM) in cases where uptake was investigated over a substrate concentration range. The viability of the untreated cells and the effect of the individual drugs and chemical agents, as well as the effect of their combined use were assessed. […] For the assessment of the individual chemical agents, same concentrations were used as in the lysosomal sequestration studies. The cytotoxicity in above samples was measured on three separate occasions. The LDH activity of the experimental samples was compared against the 100% activity of the LDH positive control included in the assay kit. […] Data acquisition was performed using Magellan software (version 7.1, Tecan Group Ltd., Austria).

With CC[C@H]1OC(=O)[C@H](C)[C@@H](O[C@H]2C[C@@](C)(OC)[C@@H](O)[C@H](C)O2)[C@H](C)[C@@H](O[C@@H]2O[C@H](C)C[C@H](N(C)C)[C@H]2O)[C@](C)(OC)C[C@@H](C)C(=O)[C@H](C)[C@@H](O)[C@]1(C)O [Clarithromycin] the “Acid–base Property” value [1] was “Base”, the “Reduction in uptake clearance (%)” value (NR8383 cells [2]; 5 µM drug, + 10 mM NH4Cl) was 85% and the “Reduction in uptake clearance (%)” value (NR8383 cells [2]; 5 µM drug, + 20 mM NH4Cl) was 93%. For the same molecule, the “Reduction in uptake clearance (%)” value (NR8383 cells [2]; 5 µM drug, + 50 mM NH4Cl) was 94%, the “Reduction in uptake clearance (%)” value (NR8383 cells [2]; 20 µM drug, + 10 mM NH4Cl) was 85% and the “Reduction in uptake clearance (%)” value (NR8383 cells [2]; 20 µM drug, + 20 mM NH4Cl) was 89%. The “Reduction in uptake clearance (%)” value (NR8383 cells [2]; 20 µM drug, + 50 mM NH4Cl) was 93%, the “% Reduction in Kp by NH4Cl” value (NR8383 cells [2]; NR8383, 5 μM drug) was 84 ± 6.6 % and the “% Reduction in Kp by Monensin” value (NR8383 cells [2]; NR8383, 5 μM drug, monensin 5 μM, 5 min) was 77 ± 8.5 %. The “% Reduction in Kp by Nigericin” value (NR8383 cells [2]; NR8383, 5 μM drug, nigericin 10 μM, 5 min) was 82 ± 9.6 %, the “% Reduction in Kp by NH4Cl” value (NR8383 cells [2]; NR8383, 20 µM drug) was 75 ± 8.3 % and the “% Reduction in CLuptake by Monensin (5 µM)” value (NR8383 cells [2]; NR8383, at 5 µM drug) was 78 ± 8.0 %. The “% Reduction in CLuptake by NH4Cl (20 mM)” value (NR8383 cells [2]; NR8383, at 5 µM drug) was 85 ± 7.5 %, the “% Reduction in CLuptake by Nigericin (10 µM)” value (NR8383 cells [2]; NR8383, at 5 µM drug) was 84 ± 9.2 % and the “% Reduction in CLuptake by NH4Cl (20 mM)” value (NR8383 cells [2]; NR8383, at 20 µM drug) was 78 ± 9.0 %. The “reduction of Kp and CLuptake in the presence of NH4Cl and monensin/nigericin” value (NR8383 cells [2]; NR8383, summary in Abstract) was 59–85%, the “reduction in Kp in the presence of chemical agents (summary in Discussion)” value (NR8383 cells [2]; NR8383, NH4Cl, monensin, nigericin) was ≥ 65% and the Kp ([3]; NR8383, 10 min, 37°C, initial concentration 50 μM) was ~ 16. For the same molecule, the “reduction in Kp at 4°C compared to 37°C” value ([3]; NR8383) was 90%, the “reduction of amount of drug in the cells by NH4Cl” value ([3]; NR8383) was “approximately half” and the “reduction of fraction of drug in the granules compartment (containing the lysosomes) by NH4Cl” value ([3]; NR8383) was 75%. The LogD7.4 [4] was 1.57, the “reduction in LTR accumulation” value (NR8383 cells [5]) was 86% and the “% Reduction in Kp by Monensin” value (NR8383 cells [6]; monensin 5 μM) was 77%. For the same molecule, the “% Reduction in Kp by Nigericin” value (NR8383 cells [6]; nigericin 10 μM) was 82%, the KU1 (NR8383 cells [7]) was 1.18 ± 1.45 µM and the “Contribution of passive (%)” value (NR8383 cells [8]; NR8383, 5 μM, CLdiff relative to CLuptake) was 0.53%. For the same molecule, the “mean uptake of 5 μM clarithromycin across experiments” value (NR8383 cells [8]; control of individual experiments, n = 59) was 5.50 ± 2.96 μl/min/10^6 cells, the fraction unbound [9] was 0.93 ± 0.03 and the Km (NR8383 cells [10]; active uptake) was 28.5 µM. For the same molecule, the Vmax (NR8383 cells [10]; active uptake) was 12.4 pmol/min/10^6 cells, the “total CLuptake from kinetic parameters” value (NR8383 cells [10]) was 0.46 μL/min/10^6 cells and the “cytotoxicity (LDH) compared to positive control” value (NR8383 cells [11]; drug 50 μM) was < 3%. For the same molecule, the “cytotoxicity (LDH) compared to positive control” value (NR8383 cells [11]; drug 100 μM) was 10%.
